Values joined by “and” are separate entries in the source; they are usually repeats but may differ in a detail not shown here. Equal values may be shown once.
Columns and labels:
tauP301L = tauP301L (Homo sapiens, UniProt P10636, P618L); test: WB degradation of tauP301L in SH-SY5Y-tauP301L cells; assay type: cell-based; settings: for Tau normalized to GAPDH and control, AVG %: average of N=3
How it was run: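 Lysates in SDS/LDS or Laemmli sample buffer were separated by SDS-PAGE and blotted to PVDF. Target protein was detected with primary antibodies, HRP secondary and ECL on X-ray film, and degradation quantified by band densitometry.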

[1] = test system: tauP301L inclusion bodies; test: ICC of TauP301L-GFP autophagic targeting in HeLa cells; assay type: cell-based; settings: Fig. 5k, compound +HCQ; for TauP301L-GFP / LC3 colocalization, cells counted per 50 cells (individual replicates): count out of 50 cells
Method: Fig. 5 Selective degradation of pathological aggregation-prone tau species by aggregate-binding AUTOTAC. a–c WB in SH-SY5Y-tauP301L cells treated with PBA-1105, PBA, or YTK-1105 at the indicated concentrations. d Densitometry of (a, b, and c) (n = 3 biologically independent experiments). e–g Same as (a–c) but with Anle138b-F105, Anle138b, or YTK-105. (h) Densitometry of (e, f, and g) (n = 3 biologically independent experiments). i WB in SH-SY5Y-tauP301L cells treated with PBA-1105 (0.1 μM) at the indicated time points. j ICC of HeLa cells expressing recombinant TauP301L-GFP and treated with the indicated compounds (1 μM, 24 h) and HCQ (10 μM, 24 h). Scale bar, 10 μm. k Quantification of (j) (n = 3 biologically independent experiments each counting 50 cells). l In vivo oligomerization assay in SH-SY5Y-tauP301L cells treated with okadaic acid (15 nM, 24 h) and the indicated compounds (0.1 μM, 24 h). m Triton X-100-fractionation assay in SH-SY5Y-tauP301L cells treated with a combination of HCQ (10 μM, 24 h), okadaic acid (15 nM, 24 h) or PBA-1105 (0.1 μM, 24 h). Data are presented as mean values ± SD where relevant. P-values (from a two-sided unpaired t test): **P < 0.00821. Source data are provided with this paper.
Cells were cultured on coverslips coated with poly-L-lysine (Sigma) to observe cellular localization of proteins. Using 4% paraformaldehyde in PBS (pH 7.4), the cells were fixed for 15 min at room temperature and washed three times for 5 min with PBS. After fixing, the cells were permeabilized with 0.5% Triton X-100 in PBS solution for 15 min and washed three times with PBS for 5 min. The cells were blocked containing 2% BSA in PBS solution for 1 h at room temperature. Subsequently, the cells were incubated with primary antibody diluted in 2% BSA/PBS solution overnight at 4 °C, followed by washing the cells three times for 10 min with PBS and incubated with Alexa Fluor-conjugated secondary antibody diluted in 2% BSA/PBS for 30 min at room temperature. Using a DAPI-containing mounting medium (Vector Laboratories), the coverslips were mounted on glass slides. Confocal images were taken by laser scanning confocal microscope 510 Meta (Zeiss) and analyzed by Zeiss LSM Image Browser (ver. 4.2.0.121). […] Quantification results are shown as mean ± S.D. or S.E.M. of three independent experiments

[2] = PK parameters in ICR mice; assay type: in vivo; settings: single injection
[3] = biological target: tauP301L insoluble and soluble species (Homo sapiens, UniProt P10636, P618L); test: Triton X-100-based insoluble/soluble fractionation; assay type: cell-based; settings: 2.5 μM 24 h, HCQ 10 μM
Sequence of tauP301L insoluble and soluble species (P10636 1-441 isoform P10636-8 P301L): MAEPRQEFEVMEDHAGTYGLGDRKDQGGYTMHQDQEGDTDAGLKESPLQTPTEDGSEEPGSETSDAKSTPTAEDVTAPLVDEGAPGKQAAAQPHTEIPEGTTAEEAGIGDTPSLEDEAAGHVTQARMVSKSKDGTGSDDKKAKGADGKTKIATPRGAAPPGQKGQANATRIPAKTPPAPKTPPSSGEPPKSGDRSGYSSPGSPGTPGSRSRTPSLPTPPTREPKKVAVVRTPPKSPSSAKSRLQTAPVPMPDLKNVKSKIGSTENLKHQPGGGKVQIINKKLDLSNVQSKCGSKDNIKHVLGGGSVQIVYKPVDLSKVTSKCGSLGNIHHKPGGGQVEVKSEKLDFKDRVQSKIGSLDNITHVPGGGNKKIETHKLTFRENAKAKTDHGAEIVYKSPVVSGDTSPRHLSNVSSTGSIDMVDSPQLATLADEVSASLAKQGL
Method: SH-SY5Y-tau BiFC cells were treated with PBA-1105, PBA and YTK-1105 to determine the degraded fraction of Tau. Using a cell lysis buffer (20 mM HEPES pH 7.9, 0.2 M KCl, 1 mM MgCl2, 1 mM EGTA, 1% Triton X-100, 10% glycerol, protease inhibitor and phosphatase inhibitor), the cells were collected and incubated on ice for 15 min, followed by centrifugation at 13,000 g for 10 min at 4 °C. The supernatant was collected as the soluble fraction and the pellet as the insoluble fraction. Using PBS, the insoluble fraction was washed 4 times and lysed with a SDS-detergent lysis buffer (20 mM HEPES pH 7.9, 0.2 M KCl, 1 mM MgCl2, 1 mM EGTA, 1% Triton x-100, 1% SDS, 10% glycerol, protease inhibitors and phosphatase inhibitors). 5X Laemmli sample buffer was added to the soluble and insoluble samples and boiled for 10 min at 100 °C and loaded on a SDS-PAGE gel.

p62 = biological target: T1, p62 (Homo sapiens, UniProt Q13501); test: In vitro p62 oligomerization assay; assay type: biochemical; settings: HEK293T lysate
T1 construct: expressed in transfected cells; host or cells: HEK293T, transient; whole lysate used
T1 sequence (Q13501 whole entry): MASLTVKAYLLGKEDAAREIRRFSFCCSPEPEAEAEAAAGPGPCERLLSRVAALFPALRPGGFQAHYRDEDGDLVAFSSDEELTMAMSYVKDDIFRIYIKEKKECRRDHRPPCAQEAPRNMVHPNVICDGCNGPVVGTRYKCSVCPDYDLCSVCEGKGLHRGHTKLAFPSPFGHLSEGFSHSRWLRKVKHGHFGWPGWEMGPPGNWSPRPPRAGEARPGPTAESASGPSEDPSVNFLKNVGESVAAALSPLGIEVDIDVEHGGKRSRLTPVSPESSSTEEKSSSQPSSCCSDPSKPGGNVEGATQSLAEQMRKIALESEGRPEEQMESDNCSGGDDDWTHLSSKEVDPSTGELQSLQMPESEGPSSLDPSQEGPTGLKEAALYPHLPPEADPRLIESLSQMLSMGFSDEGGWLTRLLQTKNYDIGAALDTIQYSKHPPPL
Method: HEK293T cells were transiently transfected with a plasmid encoding p62-myc/his fusion proteins. Cells were resuspended in lysis buffer [50 mM HEPES (pH 7.4), 0.15 M KCl, 0.1% Nonidet P-40), 10% glycerol, containing a mixture of protease inhibitors and phosphatase inhibitor (Abcam)]. To lyse the cells, 10 cycles of freezing and thawing was done, followed by centrifugation at 13,000 × g for 20 min at 4 °C. Using a BCA assay, the protein concentration of the supernatant was measured. A total of 1 μg of protein was incubated with 1 mM of p62-ZZ ligands in the presence of 100 μM bestatin (Enzo) at room temperature for 2 h. After incubation, each sample was mixed with non-reducing 4X LDS sample buffer, heated at 95 °C for 10 min, and resolved using 4–20% gradient SDS-PAGE (Bio-Rad). To monitor the conversion of p62 monomers into oligomers or aggregates, IB assay was performed using anti-myc antibody.

[4] = densitometry, dosage degradation, SH-SY5Y-Tau-TiFC, 1 nM
[5] = densitometry, dosage degradation, SH-SY5Y-Tau-TiFC, 1 nM, read-out: (Tau normalized to GAPDH) normalized to control, percentage (individual replicates N=1, N=2, N=3)
[6] = densitometry, dosage degradation, SH-SY5Y-Tau-TiFC, 10 nM
[7] = densitometry, dosage degradation, SH-SY5Y-Tau-TiFC, 100 nM
[8] = densitometry, dosage degradation, SH-SY5Y-Tau-TiFC, 1 uM
[9] = densitometry, dosage degradation, SH-SY5Y-Tau-TiFC, 10uM

Sequence of tauP301L (P10636 1-441 isoform P10636-8 P301L): as the sequence (P10636 1-441 isoform P10636-8 P301L) above

O=C(O)CCCc1ccccc1 [4-PBA, 4-phenylbutyric acid]
Tau normalized to GAPDH and control, AVG % (tauP301L; [4]): 80.1686%
remaining activity at 0.001 µM (tauP301L; [5]): 76.8%
Tau normalized to GAPDH and control, AVG % (tauP301L; [6]): 93.9777%
Tau normalized to GAPDH and control, AVG % (tauP301L; [7]): 90.7287%
Tau normalized to GAPDH and control, AVG % (tauP301L; [8]): 84.0643%
Tau normalized to GAPDH and control, AVG % (tauP301L; [9]): 93.7866%
remaining activity at 10 µM (tauP301L; densitometry, dosage degradation, SH-SY5Y-Tau-TiFC, 10uM, read-out: (Tau normalized to GAPDH) normalized to control, percentage (individual replicates N=1, N=2, N=3)): 87%
TauP301L-GFP / LC3 colocalization, AVG of cells per 50 cells [1]: 13.6667
TauP301L-GFP / LC3 colocalization, percentage AVG [1]: 27.3333 percentage
TauP301L-GFP / LC3 colocalization, cells counted per 50 cells (individual replicates) ([1]; listed as PBA): 12 and 22 and 7

O=C(CCCc1ccccc1)NCCOCCOCCOCCNCc1ccc(OCc2ccccc2)c(OCc2ccccc2)c1 [PBA-1105]
DC50 (tauP301L; SH-SY5Y-tauP301L cells): 1 to 10 nM
Dmax,24 hr of tauP301L degradation (tauP301L; SH-SY5Y-tauP301L cells): 100 nM
Tau normalized to GAPDH and control, AVG % (tauP301L; [4]): 46.0558%
remaining activity at 0.001 µM (tauP301L; [5]): 45%
Tau normalized to GAPDH and control, AVG % (tauP301L; [6]): 19.6838%
Tau normalized to GAPDH and control, AVG % (tauP301L; [7]): 23.7212%
Tau normalized to GAPDH and control, AVG % (tauP301L; [8]): 30.8722%
Tau normalized to GAPDH and control, AVG % (tauP301L; densitometry, dosage degradation, SH-SY5Y-Tau-TiFC, 2.5uM): 20.4143%
remaining activity at 2.5 µM (tauP301L; densitometry, dosage degradation, SH-SY5Y-Tau-TiFC, 2.5uM, read-out: (Tau normalized to GAPDH) normalized to control, percentage (individual replicates N=1, N=2, N=3)): 19.2%
Tau normalized to GAPDH and control, AVG % (tauP301L; densitometry, dosage degradation, SH-SY5Y-Tau-TiFC, 5uM): 12.549%
Tau normalized to GAPDH and control, AVG % (tauP301L; [9]): 73.3109%
exposure [2]: good albeit rapidly metabolized exposure
autophagic degradation of detergent-soluble and -insoluble tauP301L [3]: promoted autophagic degradation of not only detergent-soluble but critically also -insoluble species
p62 self-oligomerization (p62): triggered its self-oligomerization
TauP301L-GFP / LC3 colocalization, AVG of cells per 50 cells [1]: 33
TauP301L-GFP / LC3 colocalization, percentage AVG [1]: 66 percentage
TauP301L-GFP / LC3 colocalization, cells counted per 50 cells (individual replicates) [1]: 33 and 41 and 25

O[C@H](CNCCOCCOCCOc1ccc(-c2c(-c3ccccc3)nn3c(C(F)(F)F)cc(C(F)(F)F)nc23)cc1)COc1ccc(OCc2ccccc2)c(OCCCc2ccccc2)c1 [PHTPP-1304]
p62 self-oligomerization (p62): induced self-oligomerization of p62

— article PMC8850458, “The AUTOTAC chemical biology platform for targeted protein degradation via the autophagy-lysosome system” (Nature Communications, 2022)
